# Experimental data as given in ChEMBL document CHEMBL4406871, “Novel berberine-based derivatives with potent hypoglycemic activity” (Bioorg Med Chem Lett, 2019).
# Calls of active or inactive are those of the source. The calls are words filed in the database; no cut-off is given here.
# Columns and labels:
# HepG2 [1] = assay: Increase in glucose consumption in human HepG2 cells assessed as glucose content in medium at 10^-6 M measured after 24 hrs by glucose oxidase method relative to control; assay type: functional
# [2] = Oral bioavailability in rat; assay type: ADME, organism-based; details: in vivo
# HepG2 [3] = assay: Increase in glucose consumption in human HepG2 cells assessed as glucose content in medium at 10^-6 M measured after 24 hrs by glucose oxidase method relative to metformin; assay type: functional
# HepG2 [4] = assay: Increase in glucose consumption in human HepG2 cells assessed as glucose content in medium at 10^-6 M measured after 24 hrs by glucose oxidase method relative to rosiglitazone; assay type: functional
# [5] = target: AMP-activated protein kinase (AMPK) alpha-1/beta-1/gamma-1 (Homo sapiens) (UniProt P54619+Q9Y478+Q13131); assay: Agonist activity at AMPKalpha1beta1gamma1 (unknown origin); assay type: protein-complex assay
# HepG2 [6] = assay: Activation of AMPKalpha in human HepG2 cells assessed as induction of AMPKalpha phosphorylation at Thr172 residue at 10 uM by Western blot analysis; assay type: cell-based
# [7] = target: AMP-activated protein kinase, AMPK (Homo sapiens) (UniProt P54646+O43741+P54619+Q9UGJ0+Q9Y478+Q13131+Q9UGI9); assay: Activation of AMPK in human HepG2 cells assessed as induction of ACC phosphorylation at Ser79 residue at 10 uM by Western blot analysis; assay type: cell-based
# [8] = target: T1, Peroxisome proliferator-activated receptor gamma (Homo sapiens, UniProt P37231); assay: Transactivation of human PPARgamma transfected in U2OS cells co-tranfected with human RXR measured after 24 hrs by luciferase reporter assay; assay type: cell-based
# T1 sequence (P37231 whole entry): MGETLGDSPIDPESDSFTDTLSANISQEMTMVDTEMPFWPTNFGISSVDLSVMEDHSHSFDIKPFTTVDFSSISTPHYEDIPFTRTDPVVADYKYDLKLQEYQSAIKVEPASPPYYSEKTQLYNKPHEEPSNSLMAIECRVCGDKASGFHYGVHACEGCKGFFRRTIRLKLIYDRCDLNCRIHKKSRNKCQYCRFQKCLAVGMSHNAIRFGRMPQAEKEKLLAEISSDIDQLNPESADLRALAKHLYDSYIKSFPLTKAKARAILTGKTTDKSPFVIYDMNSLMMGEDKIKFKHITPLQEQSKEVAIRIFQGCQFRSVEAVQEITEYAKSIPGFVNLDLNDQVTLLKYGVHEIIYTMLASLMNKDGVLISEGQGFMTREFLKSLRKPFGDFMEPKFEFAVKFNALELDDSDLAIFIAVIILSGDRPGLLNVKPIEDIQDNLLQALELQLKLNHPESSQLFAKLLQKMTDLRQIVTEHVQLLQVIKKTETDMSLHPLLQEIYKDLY
# HepG2 [9] = assay: Increase in glucose consumption in human HepG2 cells assessed as glucose content in medium at 10^-6 M measured after 24 hrs by glucose oxidase method relative to berberine; assay type: functional
# Chain of AMP-activated protein kinase (AMPK) alpha-1/beta-1/gamma-1 (Homo sapiens) (P54619 whole entry): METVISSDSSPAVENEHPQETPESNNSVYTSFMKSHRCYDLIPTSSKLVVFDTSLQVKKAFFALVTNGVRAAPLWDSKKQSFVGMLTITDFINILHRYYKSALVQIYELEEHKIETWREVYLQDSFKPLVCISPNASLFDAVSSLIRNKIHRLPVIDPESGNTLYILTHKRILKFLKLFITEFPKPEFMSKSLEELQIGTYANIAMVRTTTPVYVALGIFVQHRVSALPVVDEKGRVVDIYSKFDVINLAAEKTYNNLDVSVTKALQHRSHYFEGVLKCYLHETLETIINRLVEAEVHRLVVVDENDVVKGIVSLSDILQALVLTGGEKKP
# Chain of AMP-activated protein kinase (AMPK) alpha-1/beta-1/gamma-1 (Homo sapiens) (Q13131 whole entry partner): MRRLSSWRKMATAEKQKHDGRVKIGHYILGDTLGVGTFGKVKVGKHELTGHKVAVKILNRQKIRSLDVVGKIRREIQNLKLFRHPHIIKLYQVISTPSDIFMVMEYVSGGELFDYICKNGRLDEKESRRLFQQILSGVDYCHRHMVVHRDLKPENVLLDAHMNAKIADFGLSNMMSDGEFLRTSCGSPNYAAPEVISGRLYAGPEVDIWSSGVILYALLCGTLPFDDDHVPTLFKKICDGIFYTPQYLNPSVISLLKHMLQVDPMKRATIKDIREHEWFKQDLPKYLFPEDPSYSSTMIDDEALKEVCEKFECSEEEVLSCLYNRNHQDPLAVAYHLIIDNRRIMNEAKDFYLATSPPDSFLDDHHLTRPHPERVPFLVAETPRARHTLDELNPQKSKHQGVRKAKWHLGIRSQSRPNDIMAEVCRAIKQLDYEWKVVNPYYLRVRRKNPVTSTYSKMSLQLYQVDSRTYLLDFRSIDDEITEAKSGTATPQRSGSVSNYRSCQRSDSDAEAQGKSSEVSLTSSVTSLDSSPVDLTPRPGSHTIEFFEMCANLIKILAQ
# Chain of AMP-activated protein kinase (AMPK) alpha-1/beta-1/gamma-1 (Homo sapiens) (Q9Y478 2-270 partner limits assumed): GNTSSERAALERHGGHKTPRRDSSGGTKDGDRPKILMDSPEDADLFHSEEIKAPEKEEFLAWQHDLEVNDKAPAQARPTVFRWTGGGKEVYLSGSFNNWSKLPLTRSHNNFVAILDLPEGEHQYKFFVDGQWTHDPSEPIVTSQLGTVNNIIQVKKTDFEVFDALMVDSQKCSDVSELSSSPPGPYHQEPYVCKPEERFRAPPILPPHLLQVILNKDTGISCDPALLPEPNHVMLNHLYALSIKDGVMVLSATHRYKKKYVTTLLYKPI
Compound,Activity (HepG2 [1]),other results
COc1ccc2cc3[n+](cc2c1OC)C(C(=O)O)Cc1cc2c(cc1-3)OCO2.[Cl-] (stereo unspecified),1.88%,–
CN(CCOc1ccc(CC2SC(=O)NC2=O)cc1)c1ccccn1 (stereo unspecified) [ROSIGLITAZONE],13.87%,–
COc1ccc2cc3[n+](cc2c1OC)CCc1cc2c(cc1-3)OCO2.[Cl-] [BERBERINE CHLORIDE],5.16%,bioavailability [2]: < 1%
COc1ccc2c(c1OC)C[N+]1(CCCCC(=O)O)CCc3cc4c(cc3C1C2)OCO4.[Cl-] (stereo unspecified),14.52%,–
COc1ccc2c(c1OC)C[N+]1(CCCCCC(=O)O)CCc3cc4c(cc3C1C2)OCO4.[Cl-] (stereo unspecified),15.78%,–
COc1ccc(OC)c2c1CC1c3cc4c(cc3CC(C(=O)O)N1C2)OCO4 (stereo unspecified),12.43%,–
COc1ccc(OC)c2c[n+]3c(cc12)-c1cc2c(cc1CC3CC(=O)O)OCO2.[Cl-] (stereo unspecified),9.44%,–
COc1cc(OC)c2cc3[n+](cc2c1)C(CC(=O)O)Cc1cc2c(cc1-3)OCO2.[Cl-] (stereo unspecified),9.02%,–
COc1cc2cc3[n+](cc2cc1OC)C(CC(=O)O)Cc1cc2c(cc1-3)OCO2.[Cl-] (stereo unspecified),15.31%,–
COc1cc2c(c(OC)c1)CC1c3cc4c(cc3CC(C(=O)O)N1C2)OCO4 (stereo unspecified),9.65%,–
COc1cc(OC)c2cc3[n+](cc2c1)C(C(=O)O)Cc1cc2c(cc1-3)OCO2.[Cl-] (stereo unspecified),8.62%,–
CN(C)C(=N)NC(=N)N [METFORMIN],12.07%,–
COc1cc2c[n+]3c(cc2c(OC)c1OC)-c1cc2c(cc1CC3C(=O)O)OCO2.[Cl-] (stereo unspecified),9.1%,–
COc1ccc2c(c1OC)CN1C(CC(=O)O)Cc3cc4c(cc3C1C2)OCO4 (stereo unspecified),7.16%,–
COc1ccc2c(c1OC)C[N+]1(CCCC(=O)O)CCc3cc4c(cc3C1C2)OCO4.[Cl-] (stereo unspecified),16%,fold change (FC) (HepG2 [3]): 1.32; fold change (FC) (HepG2 [4]): 1.15
COc1ccc2c(c1OC)CN1C(C(=O)O)Cc3cc4c(cc3C1C2)OCO4 (stereo unspecified),6.39%,–
O=C(O)C1CCC2C(C1)c1cc(OCc3ccccc3)ccc1N2C(=O)c1ccc(Cl)cc1 (stereo unspecified),–,Activity [5]: 362 nM
COc1cc2cc3[n+](cc2cc1OC)C(C(=O)O)Cc1cc2c(cc1-3)OCO2.[Cl-] (stereo unspecified),6.92%,Activity (HepG2 [6]): Active; Activity [7]: Active; EC50 [8]: > 100 µM
COc1ccc2cc3[n+](cc2c1OC)C(CC(=O)O)Cc1cc2c(cc1-3)OCO2.[Cl-] (stereo unspecified),2.8%,–
COc1ccc(OC)c2c[n+]3c(cc12)-c1cc2c(cc1CC3C(=O)O)OCO2.[Cl-] (stereo unspecified),7.44%,–
COc1cc2c(cc1OC)CN1C(C(=O)O)Cc3cc4c(cc3C1C2)OCO4 (stereo unspecified),16.76%,Activity (HepG2 [6]): Active; Activity [7]: Active; fold change (FC) (HepG2 [9]): 3.23; fold change (FC) (HepG2 [3]): 1.39; fold change (FC) (HepG2 [4]): 1.2; EC50 [8]: > 100 µM
COc1cc2c[n+]3c(cc2c(OC)c1OC)-c1cc2c(cc1CC3CC(=O)O)OCO2.[Cl-] (stereo unspecified),10.18%,–
COc1ccc2c(c1OC)C[N+]1(CC(=O)O)CCc3cc4c(cc3C1C2)OCO4.[Cl-] (stereo unspecified),15.4%,–
COc1ccc2c(c1OC)C[N+]1(Cc3ccc(C(=O)O)cc3)CCc3cc4c(cc3C1C2)OCO4.[Cl-] (stereo unspecified),12.11%,–
